The values that follow come from the Biogen ADME set (Fang et al. 2023).

The conditions of this series: for aqueous solubility: pH 6.8.

For orientation: aqueous solubility means the dissolved amount per volume that the medium holds.

Values after ≈ are worked out from the molar mass of the structure shown.

As for `CCC(Nc1cnn(C)c1)c1ccc2c(c1)OCCO2` (stereo not given), the MDR1-MDCK efflux ratio was 0.835; the intrinsic clearance, human liver microsomes turned out to be 11.4 mL/min/kg; the intrinsic clearance, rat liver microsomes amounted to 332 mL/min/kg; the aqueous solubility was 37.7 µg/mL (≈ 138 µM).
`O=C(Nc1nc2ccccc2[nH]1)c1cccnc1` came in with an aqueous solubility of 0.2 µg/mL (≈ 0.839 µM).
In turn, `CC(C)[C@H](O)C(=O)N[C@@H](C)C(=O)N[C@@H]1C(=O)N(C)CCc2ccccc21` gave an intrinsic clearance, human liver microsomes of 6.33 mL/min/kg and an intrinsic clearance, rat liver microsomes of 14.2 mL/min/kg.
Take `NCCCC[C@H](N[C@@H](CCc1ccccc1)C(=O)O)C(=O)N1CCC[C@H]1C(=O)O`: the fraction unbound, rat plasma was 1.
Turning to `CC#CCNc1ccc(-n2cnnn2)c(C)c1`, the MDR1-MDCK efflux ratio turned out to be 0.59; the intrinsic clearance, human liver microsomes stood at 21.1 mL/min/kg; the intrinsic clearance, rat liver microsomes was found to be 131 mL/min/kg; the aqueous solubility amounted to 19.4 µg/mL (≈ 85.4 µM).
Taken in the same sequence, the figures for `O=C(Nc1ccccc1)N1CCCc2cnc(N3CCOCC3)nc21` were 1.22, not above 4.74 mL/min/kg, 116 mL/min/kg and 5.86 µg/mL (≈ 17.3 µM).
In the case of `CC(=O)N(C)[C@H]1CC2(CCN(C(=O)COc3cc(C)c(Cl)c(C)c3)CC2)OC[C@]1(C)O`, the MDR1-MDCK efflux ratio was determined as 8.59; the intrinsic clearance, human liver microsomes is 78.1 mL/min/kg; the intrinsic clearance, rat liver microsomes is 442 mL/min/kg.
Molecule `O=C(Nc1nnc[nH]1)c1ccc(C2SCCCS2)cc1` registered an intrinsic clearance, human liver microsomes of 8.22 mL/min/kg and an intrinsic clearance, rat liver microsomes of 147 mL/min/kg.
On to `CC1(C)Oc2ccc(Cl)cc2[C@@H]2O[C@@H]3CCNC[C@@H]3C[C@H]21`, for which the MDR1-MDCK efflux ratio amounted to 11.3; the intrinsic clearance, human liver microsomes was not above 4.74 mL/min/kg; the intrinsic clearance, rat liver microsomes came to 103 mL/min/kg; the aqueous solubility worked out at 42.5 µg/mL (≈ 138 µM).
Taken in the same sequence, the figures for `O=C(O)c1cc(/N=N/c2ccc(S(=O)(=O)Nc3ccccn3)cc2)ccc1O` were 0.459, not above 4.74 mL/min/kg, 50.5 mL/min/kg and 54.5 µg/mL (≈ 137 µM).
Consider `CN(CC(=O)NC1(C#N)CCCC1)c1ccccc1`, for which the MDR1-MDCK efflux ratio came out at 0.924; the intrinsic clearance, human liver microsomes was 20.3 mL/min/kg; the intrinsic clearance, rat liver microsomes worked out at 498 mL/min/kg; the aqueous solubility is 46.5 µg/mL (≈ 181 µM).
On to `Fc1cccc(Cn2nnc(-c3ccccc3)n2)c1F`, for which the MDR1-MDCK efflux ratio stood at 0.358 and the aqueous solubility was 0.1 µg/mL (≈ 0.367 µM).
As to `CC(=O)NC1(C(=O)N2CCCN(c3cccnn3)CC2)CCCCC1`, the MDR1-MDCK efflux ratio stood at 21.8; the intrinsic clearance, human liver microsomes was 7.73 mL/min/kg; the intrinsic clearance, rat liver microsomes stood at 20.9 mL/min/kg; the aqueous solubility came to 48.3 µg/mL (≈ 140 µM).
Consider `CN(C)c1ccnc(NCc2ccc(F)cc2)n1`, for which the intrinsic clearance, human liver microsomes was 54 mL/min/kg and the intrinsic clearance, rat liver microsomes was 1790 mL/min/kg.
Consider `Cc1cc(Cl)n(-c2ccc(C#N)cc2)n1`, for which the MDR1-MDCK efflux ratio was determined as 0.465; the intrinsic clearance, human liver microsomes is 105 mL/min/kg; the intrinsic clearance, rat liver microsomes came to 310 mL/min/kg.
Taken in the same sequence, the figures for `O=C(Nc1ccc(COC2CCCC2)cc1)N1CCC(CO)CC1` were 5.55, not above 4.74 mL/min/kg and 329 mL/min/kg.
Taken in the same sequence, the figures for `CCc1c(C(=O)N2CC[C@@](O)(CC(C)C)[C@@H](Oc3ccc(F)cc3)C2)[nH]c2ccc(C)cc12` were 4.15, 104 mL/min/kg and 1290 mL/min/kg.
The matching figures for `O=C1c2ccccc2C(=O)N1CCNc1ccc(F)cc1`: 0.43, 87.6 mL/min/kg and 615 mL/min/kg.
Regarding `O=C(Cc1cccs1)NCc1ccccc1F`, the MDR1-MDCK efflux ratio stood at 0.641; the intrinsic clearance, human liver microsomes was 20.9 mL/min/kg; the intrinsic clearance, rat liver microsomes was 133 mL/min/kg; the aqueous solubility was determined as 34.8 µg/mL (≈ 140 µM).
The matching figures for `Cc1nccc(-c2cccc(NCC(=O)NCC(=O)N3CCCC3)c2)n1`: 43.4, not above 4.74 mL/min/kg, 16.2 mL/min/kg and 69.5 µg/mL (≈ 197 µM).
`O=C(NCc1cccc(O)c1)Nc1nc(-c2ccncc2)cs1` yielded an intrinsic clearance, human liver microsomes of 97.6 mL/min/kg and an intrinsic clearance, rat liver microsomes of 246 mL/min/kg.
Take `Cc1ccc(=O)n(CCOc2cc(F)cc(Br)c2)n1`: the MDR1-MDCK efflux ratio amounted to 0.596; the intrinsic clearance, human liver microsomes turned out to be 140 mL/min/kg; the intrinsic clearance, rat liver microsomes came out at 901 mL/min/kg.
For `O=C(c1cc(-c2cccc(Cl)c2)on1)N1CCC(n2cccc2)CC1`, the MDR1-MDCK efflux ratio stood at 0.698; the intrinsic clearance, human liver microsomes amounted to 15.4 mL/min/kg; the intrinsic clearance, rat liver microsomes was 274 mL/min/kg; the aqueous solubility came out at 10.5 µg/mL (≈ 29.4 µM).
`NC(=O)c1ccc(N2CCCCC2)c(NC(=O)c2ncoc2-c2ccc3ccccc3c2)c1`: the MDR1-MDCK efflux ratio turned out to be 0.519 and the aqueous solubility stood at 0.24 µg/mL (≈ 0.545 µM).
Regarding `Cn1cc(NC(=O)c2ccccc2C(F)(F)F)cn1`, the MDR1-MDCK efflux ratio was 0.828; the intrinsic clearance, human liver microsomes was not above 4.74 mL/min/kg; the intrinsic clearance, rat liver microsomes was not above 10.7 mL/min/kg; the aqueous solubility worked out at 37.7 µg/mL (≈ 140 µM).
The matching figures for `CC(C)(C)c1ccc(C2=NC3(CCNCC3)NC2=O)cc1`: 33.8, 6.52 mL/min/kg, 59.6 mL/min/kg and 45 µg/mL (≈ 158 µM).
`COc1cc(CN[C@@H]2CCC[C@H]2Cc2cc(C)no2)ccc1OC(C)C` showed an intrinsic clearance, human liver microsomes of 66.8 mL/min/kg and an intrinsic clearance, rat liver microsomes of 2380 mL/min/kg.
For `Cc1nc2ccccn2c1CC(=O)NCCCSc1ccccc1`, the MDR1-MDCK efflux ratio turned out to be 26.2; the intrinsic clearance, human liver microsomes worked out at 77.8 mL/min/kg; the intrinsic clearance, rat liver microsomes is 1260 mL/min/kg; the aqueous solubility came to 42.3 µg/mL (≈ 125 µM).
Taken in the same sequence, the figures for `Cc1ccc(C(=O)NCCc2csc(C)n2)cn1` were 0.918, 7.45 mL/min/kg, 11.3 mL/min/kg and 40.4 µg/mL (≈ 155 µM).
For `Clc1ccc2c(c1)CCc1cccnc1C2=C1CCNCC1`, the MDR1-MDCK efflux ratio was found to be 47.8; the intrinsic clearance, human liver microsomes is not above 4.74 mL/min/kg; the intrinsic clearance, rat liver microsomes amounted to 108 mL/min/kg.
Taken in the same sequence, the figures for `CN(CC1CCC1)C(=O)C1CCN(c2ccc3nncn3n2)CC1` were 11.6, 7.72 mL/min/kg and 126 mL/min/kg.
For the molecule `NC(=O)CC1CCN(c2ncccn2)CC1`, the MDR1-MDCK efflux ratio stood at 1.01; the intrinsic clearance, human liver microsomes was not above 4.74 mL/min/kg; the intrinsic clearance, rat liver microsomes is not above 10.7 mL/min/kg; the aqueous solubility was found to be 58.2 µg/mL (≈ 264 µM).
Consider `Brc1nnc(N2CCC(OC3CCCC3)CC2)s1`, for which the MDR1-MDCK efflux ratio worked out at 0.582; the intrinsic clearance, human liver microsomes was 77.3 mL/min/kg; the intrinsic clearance, rat liver microsomes amounted to 3110 mL/min/kg.
As for `O=C(Nc1nc2ccccc2[nH]1)C1CCCCC1`, the MDR1-MDCK efflux ratio is 0.721; the intrinsic clearance, human liver microsomes turned out to be 15.5 mL/min/kg; the intrinsic clearance, rat liver microsomes came to 189 mL/min/kg; the aqueous solubility amounted to 2.44 µg/mL (≈ 10 µM).
`CC(C)Cc1ccc(-c2nc(-c3ccc(CN4CC(C(=O)O)C4)cc3)no2)cc1` showed an intrinsic clearance, human liver microsomes of 7.6 mL/min/kg and an intrinsic clearance, rat liver microsomes of 17 mL/min/kg.
As for `O=C1NCN(c2ccccc2)C12CCN(CCCOc1ccc(F)cc1)CC2`, the intrinsic clearance, human liver microsomes was 74.3 mL/min/kg; the intrinsic clearance, rat liver microsomes came to 548 mL/min/kg; the aqueous solubility is 50.9 µg/mL (≈ 133 µM).
As to `COc1ccc(C(=O)N2CCCC2)cc1NC(C)C`, the MDR1-MDCK efflux ratio is 1.08; the intrinsic clearance, human liver microsomes amounted to 7.82 mL/min/kg; the intrinsic clearance, rat liver microsomes came to 86.8 mL/min/kg; the aqueous solubility stood at 35.9 µg/mL (≈ 137 µM).
`Cn1c(NC(=O)C2CC2c2ccc(Cl)cc2)nc2ccccc21` (stereo not given) registered an aqueous solubility of 0.3 µg/mL (≈ 0.921 µM).
The same measure, in the same setting: with `Cc1c(Nc2ccc3nccnc3n2)cnn1C` the figure was 31.7 µg/mL (≈ 132 µM).
Turning to `Clc1cc2c(NC3CCCC3)nnc(-c3ccncc3)c2cc1Cl`, the MDR1-MDCK efflux ratio stood at 0.729 and the aqueous solubility stood at 0.19 µg/mL (≈ 0.529 µM).
In turn, `COc1ccc(Cc2noc(-c3cccc4c3OCC(=O)N4)n2)cc1` had an intrinsic clearance, human liver microsomes of 18.6 mL/min/kg and an intrinsic clearance, rat liver microsomes of 148 mL/min/kg.
`Cc1ccc(NC(=O)Cc2c[nH]c3ccccc23)cc1`: the aqueous solubility came to 5.6 µg/mL (≈ 21.2 µM).
Regarding `CC(C)c1nnc(CN2CCN(c3nccs3)CC2)o1`, the MDR1-MDCK efflux ratio came to 0.971; the intrinsic clearance, human liver microsomes is not above 4.74 mL/min/kg; the intrinsic clearance, rat liver microsomes turned out to be 122 mL/min/kg; the aqueous solubility was 52.1 µg/mL (≈ 177 µM).
For `CCc1nnc(N2CCCO2)c(C#N)c1CC`, the MDR1-MDCK efflux ratio was 0.746; the intrinsic clearance, human liver microsomes came out at 16.6 mL/min/kg; the intrinsic clearance, rat liver microsomes was found to be 147 mL/min/kg.
With `COc1cc(CNCCN2CCOCC2)cc(Cl)c1OCc1ccccc1`, the MDR1-MDCK efflux ratio was determined as 1.94; the intrinsic clearance, human liver microsomes was determined as 46.4 mL/min/kg; the intrinsic clearance, rat liver microsomes amounted to 330 mL/min/kg; the aqueous solubility came out at 53.5 µg/mL (≈ 137 µM).
As for `O=c1c2ccccc2cnn1Cc1cccc(OCC(F)(F)F)c1`, the MDR1-MDCK efflux ratio stood at 35.9; the intrinsic clearance, human liver microsomes was not above 4.74 mL/min/kg; the intrinsic clearance, rat liver microsomes came out at 51.3 mL/min/kg.
Regarding `Cc1cc(OCc2cc(C#N)ccc2F)ccc1N`, the aqueous solubility was found to be 25.4 µg/mL (≈ 99.2 µM).
For `CNC(=O)CN(C)c1cccc(F)c1C#N`, the MDR1-MDCK efflux ratio came out at 0.738; the intrinsic clearance, human liver microsomes was not above 4.74 mL/min/kg; the intrinsic clearance, rat liver microsomes turned out to be 15.2 mL/min/kg; the aqueous solubility was 34.1 µg/mL (≈ 154 µM).
Taken in the same sequence, the figures for `COc1ccc(/C=C/C(=O)c2c(C)nc3ccccc3c2N)cc1` were 0.197, 182 mL/min/kg, 1190 mL/min/kg and 39.6 µg/mL (≈ 124 µM).
Taken in the same sequence, the figures for `CS(=O)(=O)c1ccc(-c2cnc(NCc3ccco3)n3cnnc23)cc1` were 14.8, 15.7 mL/min/kg, 31.2 mL/min/kg and 36.4 µg/mL (≈ 98.5 µM).
